Assay results taken from BindingDB's records for doi:10.1021/jm960581w (Sphinx Laboratories, 1996).

Target: cAMP-dependent protein kinase catalytic subunit alpha (Bos taurus, UniProt P00517)
Experiment: PKA assay
Description: The activity of PKA, activated by cAMP, is measured by its ability to transfer phosphate from [gamma-32P]ATP to histone.

Q: For `O=C(NC(COC(=O)c1cc(O)c(C(=O)c2c(O)cccc2C(=O)O)c(O)c1)Cc1ccc(O)cc1)c1ccccc1` (racemic) [2-[(2,6-dihydroxy-4-{[3-(4-hydroxyphenyl)-2-(phenylformamido)propoxy]carbonyl}phenyl)carbonyl]-3-hydroxybenzoic acid], which IC50 is on record?
A: > 50 µM

Q: With `CN(C)C(COC(=O)c1cc(O)c(C(=O)c2c(O)cccc2C(=O)O)c(O)c1)Cc1ccc(O)cc1` (racemic) [2-[(4-{[2-(dimethylamino)-3-(4-hydroxyphenyl)propoxy]carbonyl}-2,6-dihydroxyphenyl)carbonyl]-3-hydroxybenzoic acid] as the compound, how does the IC50 read?
A: > 50 µM

Q: For `O=C(OCC(NS(=O)(=O)c1ccccc1)c1ccc(O)cc1)c1cc(O)c(C(=O)c2c(O)cccc2C(=O)O)c(O)c1` (racemic) [2-[(4-{[2-benzenesulfonamido-2-(4-hydroxyphenyl)ethoxy]carbonyl}-2,6-dihydroxyphenyl)carbonyl]-3-hydroxybenzoic acid], which IC50 is on record?
A: > 50 µM

Q: `O=C(OCC(COc1ccc(O)cc1)NS(=O)(=O)c1ccccc1)c1cc(O)c(C(=O)c2c(O)cccc2C(=O)O)c(O)c1` (racemic) [2-[(4-{[2-benzenesulfonamido-3-(4-hydroxyphenoxy)propoxy]carbonyl}-2,6-dihydroxyphenyl)carbonyl]-3-hydroxybenzoic acid] was tested. Which IC50 did it give?
A: > 50 µM

Q: `O=C(O[C@@H]1CCC[C@H]1Oc1ccc(O)cc1)c1cc(O)c(C(=O)c2c(O)cccc2C(=O)O)c(O)c1` (racemic) [2-{[2,6-dihydroxy-4-({[(1R,2R)-2-(4-hydroxyphenoxy)cyclopentyl]oxy}carbonyl)phenyl]carbonyl}-3-hydroxybenzoic acid] was tested. Which IC50 did it give?
A: > 50 µM

Q: Which IC50 does the source give for `O=C(O[C@@H]1CCC[C@H]1Cc1ccc(O)cc1)c1cc(O)c(C(=O)c2c(O)cccc2C(=O)O)c(O)c1` (racemic) [2-{[2,6-dihydroxy-4-({[(1R,2S)-2-[(4-hydroxyphenyl)methyl]cyclopentyl]oxy}carbonyl)phenyl]carbonyl}-3-hydroxybenzoic acid] here?
A: > 50 µM

Q: `CS(=O)(=O)NC(COC(=O)c1cc(O)c(C(=O)c2c(O)cccc2C(=O)O)c(O)c1)Cc1ccc(O)cc1` (racemic) [(+-)-2-[[2,6-Dihydroxy-4-[[[3-(4-hydroxyphenyl)-2-[(methylsulfonyl)amino]propyl]oxy]carbonyl]phenyl]carbonyl]-3-hydroxybenzoic Acid] was tested. Which IC50 did it give?
A: > 50 µM

Q: Which IC50 does the source give for `O=C(OCC(Cc1ccc(O)cc1)NS(=O)(=O)c1ccccc1)c1cc(O)c(C(=O)c2c(O)cccc2C(=O)O)c(O)c1` (racemic) [(+-)-2-[[2,6-Dihydroxy-4-[[[3-(4-hydroxyphenyl)-2-[(phenylsulfonyl)amino]propyl]oxy]carbonyl]phenyl]carbonyl]-3-hydroxybenzoic Acid] here?
A: > 50 µM

Q: With `O=C(OCCCCc1ccc(O)cc1)c1cc(O)c(C(=O)c2c(O)cccc2C(=O)O)c(O)c1` [2-[(2,6-dihydroxy-4-{[4-(4-hydroxyphenyl)butoxy]carbonyl}phenyl)carbonyl]-3-hydroxybenzoic acid] as the compound, how does the IC50 read?
A: > 50 µM

Q: With `O=C(OC[C@@H](Cc1ccc(O)cc1)NS(=O)(=O)c1ccccc1)c1cc(O)c(C(=O)c2c(O)cccc2C(=O)O)c(O)c1` [2-[(4-{[(2R)-2-benzenesulfonamido-3-(4-hydroxyphenyl)propoxy]carbonyl}-2,6-dihydroxyphenyl)carbonyl]-3-hydroxybenzoic acid] as the compound, how does the IC50 read?
A: > 50 µM

Q: Which IC50 does the source give for `O=C(OC[C@H](Cc1ccc(O)cc1)NS(=O)(=O)c1ccccc1)c1cc(O)c(C(=O)c2c(O)cccc2C(=O)O)c(O)c1` [2-[(4-{[(2S)-2-benzenesulfonamido-3-(4-hydroxyphenyl)propoxy]carbonyl}-2,6-dihydroxyphenyl)carbonyl]-3-hydroxybenzoic acid] here?
A: > 50 µM

Q: With `O=C(OCCCc1ccc(O)cc1)c1cc(O)c(C(=O)c2c(O)cccc2C(=O)O)c(O)c1` [2-[[2,6-Dihydroxy-4-[[[3-(4-hydroxyphenyl)propyl]oxy]carbonyl]phenyl]carbonyl]-3-hydroxybenzoic Acid] as the compound, how does the IC50 read?
A: > 50 µM

Q: For `O=C(O[C@@H]1CCC[C@@H]1Cc1ccc(O)cc1)c1cc(O)c(C(=O)c2c(O)cccc2C(=O)O)c(O)c1` [2-{[2,6-dihydroxy-4-({[(1R,2R)-2-[(4-hydroxyphenyl)methyl]cyclopentyl]oxy}carbonyl)phenyl]carbonyl}-3-hydroxybenzoic acid], which IC50 is on record?
A: > 50 µM

Q: How did the IC50 turn out when `Cc1ccc(S(=O)(=O)N2CCC[C@@H](OC(=O)c3cc(O)c(C(=O)c4c(O)cccc4C(=O)O)c(O)c3)[C@H](NC(=O)c3ccc(O)cc3)C2)cc1` [2-{[2,6-dihydroxy-4-({[(3R,4R)-3-[(4-hydroxybenzene)amido]-1-[(4-methylbenzene)sulfonyl]azepan-4-yl]oxy}carbonyl)phenyl]carbonyl}-3-hydroxybenzoic acid] was run?
A: > 150 µM

Q: `COC(=O)c1cccc(O)c1C(=O)c1c(O)cc(C(=O)O[C@@H]2CCC[C@H]2Cc2ccc(O)cc2)cc1O` [(1R,2S)-2-[(4-hydroxyphenyl)methyl]cyclopentyl 3,5-dihydroxy-4-{[2-hydroxy-6-(methoxycarbonyl)phenyl]carbonyl}benzoate] was tested. Which IC50 did it give?
A: > 50 µM

Q: Which IC50 does the source give for `CC(CCc1ccc(O)cc1)OC(=O)c1cc(O)c(C(=O)c2c(O)cccc2C(=O)O)c(O)c1` (stereo not drawn) [(+-)-2-[[2,6-Dihydroxy-4-[[[3-(4-hydroxyphenyl)-1-methylpropyl]oxy]carbonyl]phenyl]carbonyl]-3-hydroxybenzoic Acid] here?
A: > 50 µM

Q: `O=C(OCC(Cc1ccc(O)cc1)NS(=O)(=O)c1ccc2ccccc2c1)c1cc(O)c(C(=O)c2c(O)cccc2C(=O)O)c(O)c1` (stereo not drawn) [(+-)-2-[[2,6-Dihydroxy-4-[[[3-(4-hydroxyphenyl)-2-[(naphthylsulfonyl)amino]propyl]oxy]carbonyl]phenyl]carbonyl]-3-hydroxybenzoic Acid] was tested. Which IC50 did it give?
A: > 50 µM

Q: How did the IC50 turn out when `O=C(NC(COC(=O)c1cc(O)c(C(=O)c2c(O)cccc2C(=O)O)c(O)c1)Cc1ccc(O)cc1)c1ccc(O)cc1` (stereo not drawn) [(+-)-2-[[2,6-Dihydroxy-4-[[[3-(4-hydroxyphenyl)-2-[[(4-hydroxyphenyl)carbonyl]amino]propyl]oxy]carbonyl]phenyl]carbonyl]-3-hydroxybenzoic Acid] was run?
A: > 50 µM

Q: With `COC(=O)c1cccc(O)c1C(=O)c1c(O)cc(C(=O)OC[C@H](Cc2ccc(O)cc2)NS(=O)(=O)c2ccccc2)cc1O` [(S)-Methyl 2-[[2,6-Dihydroxy-4-[[[3-(4-hydroxyphenyl)-2-[(phenylsulfonyl)amino]propyl]oxy]carbonyl]phenyl]carbonyl]-3-hydroxybenzoate] as the compound, how does the IC50 read?
A: > 50 µM
